Where a SMILES comes first, the peptide text is derived from it. [ ]: non-standard residue; d: D form. Nle = CCCC[C@H](N)C(=O)O
Molecular target: T1, human PTHR1-H223R (Homo sapiens, UniProt Q03431, H223R)
T1 construct: expressed in transfected cells; host or cells: GHR-10 (HEK-293 stably expressing GloSensor and PTHR1-H223R)
T1 sequence (Q03431 27-593 H223R): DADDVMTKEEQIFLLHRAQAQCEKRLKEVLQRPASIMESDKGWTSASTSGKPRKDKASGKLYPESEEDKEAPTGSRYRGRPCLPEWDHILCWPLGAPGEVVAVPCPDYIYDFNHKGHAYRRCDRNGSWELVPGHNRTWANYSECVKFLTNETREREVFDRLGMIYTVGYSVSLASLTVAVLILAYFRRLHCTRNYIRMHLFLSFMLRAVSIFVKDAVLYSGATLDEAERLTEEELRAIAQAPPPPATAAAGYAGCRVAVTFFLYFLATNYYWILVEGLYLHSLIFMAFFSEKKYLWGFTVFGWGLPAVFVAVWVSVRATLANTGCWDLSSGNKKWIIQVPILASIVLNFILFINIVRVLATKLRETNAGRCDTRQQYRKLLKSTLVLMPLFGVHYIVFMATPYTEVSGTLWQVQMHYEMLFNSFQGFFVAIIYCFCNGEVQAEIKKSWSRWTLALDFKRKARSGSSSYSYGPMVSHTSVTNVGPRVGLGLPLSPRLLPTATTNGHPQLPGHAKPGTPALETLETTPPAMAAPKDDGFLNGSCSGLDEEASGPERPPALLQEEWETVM
Assay: Inverse agonism on basal cAMP signaling in GHR-10 cells
Format: cell-based
Details: GHR-10 cells, from AUC, representative experiment; for Reduction of basal cAMP, % vehicle, After ligand washout: 26 minutes after washout of unbound ligand; for Reduction of basal cAMP, % vehicle, Ligand @ −6M: peptide 1×10^−6 M for 24 minutes
Experimental: cAMP signaling was assessed in the HEK293-derived or SaOS2-derived cell lines stably expressing the luciferase-based GloSensor™ cAMP reporter (Hattersley et al., Paper presented at: Novel Signaling Mechanisms and Bone Cell Biology 2014; Binkowski et al., Methods in molecular biology. 756:263-271). HEK-293 cells were further transfected to stably express the hPTHR1, hPTHR1-H223R, or hPTHR1-T410P. The cells were seeded into 96-well white plates and were assayed 24 to 48 hours post-confluency. Assays were performed at room temperature in CO2-independent culture media (Life Technologies, Corp., Carlsbad, Calif.) containing 0.1% BSA (CIDB). The cells were pre-loaded with luciferin (0.5 mM in CIDB) for 15 minutes, then PTH peptides were added at varying concentrations. cAMP-dependent luminescence was measured at two-minute intervals using a PerkinElmer Envision plate reader. The time at which maximum luminescence (cps) observed with agonist alone, typically at 10-20 minutes after agonist addition, was used to obtain data from wells containing antagonist with or without agonist, to thus generate antagonist ligand dose-response curves. The resulting cps values were then plotted against ligand concentration using GraphPad Prism 7.0 software and a four-parameter logistics curve fitting equation, which yielded parameters of inhibitory potency (pIC50).
These experiments were performed in HEK-293 cells stably transfected to express the GloSensor™ cAMP reporter along with a constitutively active mutant human PTHR1. The HEK-293 cells stably expressing GloSensor™ cAMP reporter along with a constitutively active mutant human PTHR1-H223R are GHR-10 cells. The HEK-293 cells stably expressing GloSensor™ cAMP reporter along with a constitutively active mutant human PTHR1-T410P are GTP-4 cells. The HEK-293 cells stably expressing GloSensor™ cAMP reporter along with a WT-PTHR1 are GP-2.3 cells. GP-2.3 cells were used as control. […] Effects on basal cAMP signaling over time were assessed during periods of direct ligand addition (FIGS. 15A-15F). The measurements were performed by recording GloSensor™ luminescence as counts per second (cps) using a PerkinElmer Envision plate reader. The data are illustrated in FIGS. 15A-15F. Data are from triplicate wells (means±SEM) of a single experiment representative of two others.
Persistence of the antagonist/inverse agonist effects (prolonged action) as follows. Effects of eight peptides on basal and PTH(1-34)-stimulated cAMP signaling by PTHR-H223R were assessed in GHR-10 cells (HEK-293-derived cells stably expressing glosensor cAMP reporter and PTHR1-H223R). Time courses of changes in cAMP levels were recorded in three consecutive phases:
1) after initial addition of a candidate antagonist/inverse agonist (1×10^−6 M-1×10^−9 M) to cells pre-loaded for […] with luciferin (left column);
2) after removal of unbound inverse agonist by extensive wash-out with buffer and replenishment with fresh luciferin-containing buffer (middle column); and
Control wells were treated with vehicle. GloSensor™ luminescence, as counts per second (cps), was recorded using a PerkinElmer Envision plate reader. Data are from duplicate wells (means±SEM) of a single experiment representative of two others. The results are illustrated in Table 7 and in FIGS. 16A-16C, 17A-17C, 18A-18C, 19A-19C, 20A-20C, 21A-21C, 22A-22C, and 23A-23C.
GHR10 cells were treated with vehicle or vehicle containing the indicated peptide for 24 minutes and cAMP-dependent luminescence was recorded at two-minute intervals. The cells were then washed to remove unbound ligand and media containing fresh luciferin was added, and cAMP luminescence was recorded for another 26 minutes. Percentage reduction was calculated from the area-under-the-curve (AUC) values derived from the time course plots using the equation: […]

Row | Reduction of basal cAMP, % vehicle, After ligand washout [% vehicle] | Reduction of basal cAMP, % vehicle, Ligand @ −6M [% vehicle] | Compound
1 | 71 | 70 | CCCC[C@H](NC(=O)[C@@H](N)CC(C)C)C(=O)N[C@@H](Cc1c[nH]cn1)C(=O)N[C@@H](CCC(N)=O)C(=O)N[C@@H](CC(C)C)C(=O)N[C@H](Cc1c[nH]c2ccccc12)C(=O)N[C@@H](CCCCN)C(=O)N[C@@H](Cc1c[nH]c2ccccc12)C(=O)N[C@H](C(=O)N[C@@H](CCC(N)=O)C(=O)N[C@@H](CC(=O)O)C(=O)N[C@@H](C)C(=O)N[C@@H](CCCNC(=N)N)C(=O)N[C@@H](CCCNC(=N)N)C(=O)N[C@@H](CCCNC(=N)N)C(=O)N[C@@H](C)C(=O)N[C@@H](Cc1c[nH]c2ccccc12)C(=O)N[C@@H](CC(C)C)C(=O)N[C@@H](Cc1c[nH]cn1)C(=O)N[C@@H](CCCCN)C(=O)N[C@@H](CC(C)C)C(=O)N[C@H](C(=O)N[C@@H](C)C(=O)N[C@@H](CCC(=O)O)C(=O)N[C@H](C(=O)N[C@@H](Cc1c[nH]cn1)C(=O)N[C@H](C(=O)N[C@@H](C)C(=O)N[C@@H](CCC(=O)O)C(=O)N[C@H](C(N)=O)[C@@H](C)CC)[C@@H](C)O)[C@@H](C)CC)[C@@H](C)CC)[C@@H](C)CC [compound 1997, Nle8,L11, dW12, W23-LA-PTH(7-36)-1997] (H-L[Nle]HQL[dW]KWIQDARRRAWLHKLIAEIHTAEI-NH2; N-terminus assumed)
2 | 62 | 63 | CCCC[C@H](NC(=O)[C@H](CC(C)C)NC(=O)[C@H](CCC(N)=O)NC(=O)[C@@H](N)[C@@H](C)CC)C(=O)N[C@@H](Cc1c[nH]cn1)C(=O)N[C@@H](CCC(N)=O)C(=O)N[C@@H](CC(C)C)C(=O)N[C@H](Cc1c[nH]c2ccccc12)C(=O)N[C@@H](CCCCN)C(=O)N[C@@H](Cc1c[nH]c2ccccc12)C(=O)N[C@H](C(=O)N[C@@H](CCC(N)=O)C(=O)N[C@@H](CC(=O)O)C(=O)N[C@@H](C)C(=O)N[C@@H](CCCNC(=N)N)C(=O)N[C@@H](CCCNC(=N)N)C(=O)N[C@@H](CCCNC(=N)N)C(=O)N[C@@H](C)C(=O)N[C@@H](Cc1c[nH]c2ccccc12)C(=O)N[C@@H](CC(C)C)C(=O)N[C@@H](Cc1c[nH]cn1)C(=O)N[C@@H](CCCCN)C(=O)N[C@@H](CC(C)C)C(=O)N[C@H](C(=O)N[C@@H](C)C(=O)N[C@@H](CCC(=O)O)C(=O)N[C@H](C(=O)N[C@@H](Cc1c[nH]cn1)C(=O)N[C@H](C(=O)N[C@@H](C)C(=O)N[C@@H](CCC(=O)O)C(=O)N[C@H](C(N)=O)[C@@H](C)CC)[C@@H](C)O)[C@@H](C)CC)[C@@H](C)CC)[C@@H](C)CC [compound 1999, Nle8, L11, dW12, W23-LA-PTH(5-36)-1999] (H-IQL[Nle]HQL[dW]KWIQDARRRAWLHKLIAEIHTAEI-NH2; N-terminus assumed)
3 | 65 | 66 | CC[C@H](C)[C@H](NC(=O)[C@H](CCC(=O)O)NC(=O)[C@H](C)NC(=O)[C@@H](NC(=O)[C@H](Cc1c[nH]cn1)NC(=O)[C@@H](NC(=O)[C@H](CCC(=O)O)NC(=O)[C@H](C)NC(=O)[C@@H](NC(=O)[C@H](CC(C)C)NC(=O)[C@H](CCCCN)NC(=O)[C@H](Cc1c[nH]cn1)NC(=O)[C@H](CC(C)C)NC(=O)[C@H](Cc1c[nH]c2ccccc12)NC(=O)[C@H](C)NC(=O)[C@H](CCCNC(=N)N)NC(=O)[C@H](CCCNC(=N)N)NC(=O)[C@H](CCCNC(=N)N)NC(=O)[C@H](C)NC(=O)[C@H](CC(=O)O)NC(=O)[C@H](CCC(N)=O)NC(=O)[C@@H](NC(=O)[C@H](Cc1c[nH]c2ccccc12)NC(=O)[C@H](CCCCN)NC(=O)[C@@H](Cc1c[nH]c2ccccc12)NC(=O)[C@H](CC(C)C)NC(=O)[C@H](CCC(N)=O)NC(=O)[C@H](Cc1c[nH]cn1)NC(=O)[C@H](CCSC)NC(=O)[C@@H](N)CC(C)C)[C@@H](C)CC)[C@@H](C)CC)[C@@H](C)CC)[C@@H](C)O)C(N)=O [compound 2001, L11, dW12, W23-LA-PTH(7-36)-2001] (H-LMHQL[dW]KWIQDARRRAWLHKLIAEIHTAEI-NH2; N-terminus assumed)
4 | 64 | 66 | CC[C@H](C)[C@H](N)C(=O)N[C@@H](CCC(N)=O)C(=O)N[C@@H](CC(C)C)C(=O)N[C@@H](CCSC)C(=O)N[C@@H](Cc1c[nH]cn1)C(=O)N[C@@H](CCC(N)=O)C(=O)N[C@@H](CC(C)C)C(=O)N[C@H](Cc1c[nH]c2ccccc12)C(=O)N[C@@H](CCCCN)C(=O)N[C@@H](Cc1c[nH]c2ccccc12)C(=O)N[C@H](C(=O)N[C@@H](CCC(N)=O)C(=O)N[C@@H](CC(=O)O)C(=O)N[C@@H](C)C(=O)N[C@@H](CCCNC(=N)N)C(=O)N[C@@H](CCCNC(=N)N)C(=O)N[C@@H](CCCNC(=N)N)C(=O)N[C@@H](C)C(=O)N[C@@H](Cc1c[nH]c2ccccc12)C(=O)N[C@@H](CC(C)C)C(=O)N[C@@H](Cc1c[nH]cn1)C(=O)N[C@@H](CCCCN)C(=O)N[C@@H](CC(C)C)C(=O)N[C@H](C(=O)N[C@@H](C)C(=O)N[C@@H](CCC(=O)O)C(=O)N[C@H](C(=O)N[C@@H](Cc1c[nH]cn1)C(=O)N[C@H](C(=O)N[C@@H](C)C(=O)N[C@@H](CCC(=O)O)C(=O)N[C@H](C(N)=O)[C@@H](C)CC)[C@@H](C)O)[C@@H](C)CC)[C@@H](C)CC)[C@@H](C)CC [compound 2003, L11, dW12, W23-LA-PTH(5-36)-2003] (H-IQLMHQL[dW]KWIQDARRRAWLHKLIAEIHTAEI-NH2; N-terminus assumed)
